Values joined by “and” are separate entries in the source; they are usually repeats but may differ in a detail not shown here. Equal values may be shown once. Read-outs that look alike come from different tables or passages of the source.
Legend:
[1] = tested on: Culex pipiens quinquefasciatus; assay: Mosquito engorgement test on treated shaved guinea pigs, Culex pipiens quinquefasciatus; type: in vivo
Source text: The tests were undertaken using experimental cages, which were composed of a plastic frame having the dimensions 29×29×29 cm. A sleeve of mosquito netting was placed over the cage. The sleeves of the netting were closed with rubber bands thus preventing light from entering the cages.
In each cage the mosquitoes had at their disposition a little water placed in a jar.
The mosquitoes that were used in this experiment were Culex pipiens quinquefasciatus. In each cage 50 female mosquitoes were introduced.
The day before the test 50 […] female mosquitoes were introduced into their experimental cage. The mosquitoes were deprived of a source of sugar at least twelve hours before the test.
The mosquitoes were collected by suction on the walls of the experimental cage with a mouth vacuum that was connected to a suction pump. To avoid errors, the mosquitoes were removed and introduced in lots of five. The sex was determined by observation of their antennas, since the male's antennas are more feathery.
Once the mouth vacuum was empty in the experimental cage the health of the mosquitoes was verified. To be used in the experiment, the mosquitoes had to be able to fly. Before the test the dead mosquitoes or those mosquitoes that could not fly were replaced with healthy ones.
Prior to starting the experiment the mosquitoes were tested to determine if the mosquitoes were ready to bite. This was verified by introducing a hand washed with soap and without any smell in the experimental cage. If more than three mosquitoes posed on the hand voluntarily within a delay of 30 seconds, then it was deemed that the mosquitoes were ready to bite. The hand was withdrawn when the three mosquitoes posed on it or when the 30 second time period was up. This test was repeated every minute for a maximum of 5 minutes, until a positive result was obtained. If no positive result was obtained the experiment was postponed.
A herd of guinea pigs males and females aging from 4 months to 3 years were used in the experiments. The guinea pig was anesthetized by injecting 1 mg/kg (live weight) of Zoletil® 20 in the thigh. A thin layer of Ocryl® gel was placed on the eyes of the guinea pigs.
The abdominal zone of the guinea pigs were carefully shaved from the teats to the base of the thorax. The area that was shaved was 8 cm from the base of the thorax to the teats by 6 cm from left to right of the guinea pig. This was done using a transparent template.
After shaking the sprayer containing the insect bite inhibiting semiochemical, each guinea pig was sprayed 3 times (0.5 ml total) in the center of the shaved region. After the first administration, the product was spread with the little finger, in which the hand is covered by a vinyl glove, towards the teats. After the second administration by spraying the product was spread with the gloved little finger towards the thorax. After the third administration by spraying the product was spread over the entire shaved surface. The product was permitted to dry for a period of five minutes.
At the bottom of the experimental cage a transparent sheet was placed in which a rectangle of 7 cm by 5 cm was cut in the center. Another cover sheet cut with the same dimensions as the transparent sheet was made and the two rectangles were superimposed on one another and stapled together with 8 staples.
The shaved zone of the guinea pig was centered over the rectangular transparent sheet and the guinea pigs were exposed to the mosquitoes for 30 minutes. See, FIGS. 2 and 3.
At the end of 30 minutes, the mosquitoes were recovered by mouth vacuum. They were then enclosed in a plastic bag that contained a paper soaked with ethyl acetate. After 3 minutes the mosquitoes were aligned on a strip of scotch tape that was labeled with the number of the experiment, the date, the name of the guinea pig in the experiment and the treatment that was applied.
Each treatment was tested with a control.

[2] = tested on: Culex pipiens quinquefasciatus; assay: Mosquito engorgement test on treated cats, Culex pipiens quinquefasciatus; type: in vivo; details: cat
Procedure: Other tests were performed on guinea pigs and cats using combinations of D, which is 3-cyclopentyl propanoic acid, F, which is 3-cyclohexyl propanoic acid, X, which is 3-cyclohexyl 2-methyl propanoic acid and W, which is 3-cyclopentyl 2-methyl propanoic acid.
The same experiment was conducted in the same manner as in Example 4 using guinea pigs, chickens and cats. The mosquitoes used in this experiment were Culex sp, Aedes sp and Anopheles.
The procedure that was followed was that in Example 4, except that cats (Felis domesticus) were tested instead of guinea pigs. The mosquitoes that were used in this experiement were Culex pipiens quinquefasciatus and Aedes aegypti.

insects = details: cited from earlier work
[3] = guinea pig, solution 0.1%, dose not given, 30 min exposure
[4] = guinea pig, dose 31 μg/cm^2 (Table 7)
[5] = guinea pig, solution 0.3%, dose 31 μg/cm^2, 30 min exposure
[6] = guinea pig, solution 3.0%, dose 31 μg/cm^2, 30 min exposure
[7] = guinea pig, solution 0.3%, dose 33 μg/cm^2, 30 min exposure
[8] = solution 3.0%, dose 324 μg/cm^2, 30 min exposure

Cc1ncc(CO)c(CO)c1O [Vit. B6, reference compound]
% bites tested [1, 3]: 87%
% efficacy [1, 3]: −19%

CC(CC1CCCC1)C(=O)O (stereo not shown) [methylated 3-CPP, 3-cyclopentyl 2-methyl propanoic acid]
% efficacy [1, 4]: 89%

CC1=CC[C@@H](C(C)(C)O)CC1 [alpha terpineol, reference compound]
% bites tested [1, 5]: 32%
% efficacy [1, 5]: 48%

CC12CCC(CC1)C(C)(C)O2 [eucalyptol, reference compound]
% bites tested [1, 5]: 43%
% efficacy [1, 5]: −14%

CC(C)=CCC/C(C)=C/CO [geraniol, reference compound]
% bites tested [1, 5]: 25%
% efficacy [1, 5]: 58%
% bites tested [1, 6]: 0%
% efficacy [1, 6]: 100%

CC(CC1CCCCC1)C(=O)O (stereo not shown) [methylated 3-CHP, 3-cyclohexyl 2-methyl propanoic acid]
% efficacy [1, 4]: 67%

O=C(O)CCC1CCCC1 [3-CPP, 3-cyclopentyl propionic acid]
% bites tested [1, 5]: 4% and 5% and 1% and 11%
% efficacy [1, 5]: 94% and 85% and 91% and 82%
% bites tested [1, 7]: 0%
% efficacy [1, 7]: 100%
% bites tested [1, 8]: 0%
% efficacy [1, 8]: 100%
% efficacy ([2]; 3.0%, dose 314 μg/cm^2): 100%
Number of bites of the solution used ([2]; 3.0%, dose 314 μg/cm^2): 0%
% efficacy ([2]; dose 32 μg/cm^2): 94% and 100%
% efficacy ([2]; dose 324 μg/cm^2): 100%

O=C(O)CC1CCCCC1 [CHA, cyclohexyl acetic acid]
% bites tested [1, 5]: 8%
% efficacy [1, 5]: 86%

CCN(CC)C(=O)c1cccc(C)c1 [DEET, N,N-diethyl-meta-toluamide]
protection time (insects; encapsulated DEET): up to 10 hours
protection time (insects; product containing 4.75% of DEET): one and a half
protection time (insects; product containing 23.8% of DEET): five

C=C(C)[C@H]1CC=C(C)CC1 [limonene, reference compound]
% bites tested [1, 5]: 58%
% efficacy [1, 5]: −19%

Cc1ncc(C[n+]2csc(CCO)c2C)c(N)n1 [Vit. B1, reference compound]
% bites tested [1, 3]: 93%
% efficacy [1, 3]: 2%

pinene [reference compound]
% bites tested [1, 5]: 23%
% efficacy [1, 5]: 30%

methylated cyclohexyl acetic acid [methylated CHA]
% efficacy [1, 4]: 77%
